Test results reported in ChEMBL document CHEMBL1201862, “PubChem BioAssay data set” (2004).
Calls of active or inactive are those of the source.

Assays:
[1] = target: T1, Interleukin-8 (Homo sapiens, UniProt P10145); assay: Dose Response confirmation of uHTS small molecule hits for cystic fibrosis induced NFkb Inhibitors in a PAF-induced IL8 counterscreen.; format: functional; conditions: read-out: IC50_Mean
T1 sequence (P10145 whole entry): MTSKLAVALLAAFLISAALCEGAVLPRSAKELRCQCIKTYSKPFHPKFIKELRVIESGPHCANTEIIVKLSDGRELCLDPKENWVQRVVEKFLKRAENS

[2] = target: T1, Interleukin-8; assay: Dose Response confirmation of uHTS small molecule hits for cystic fibrosis induced NFkb Inhibitors in a TNFa-induced IL8 counterscreen.; format: functional; conditions: read-out: IC50_Mean
[3] = target: Adenosylmethionine-8-amino-7-oxononanoate aminotransferase (Mycobacterium tuberculosis, UniProt P9WQ81); assay: Mycobacterium tuberculosis BioA enzyme inhibitor Measured in Biochemical System Using Plate Reader - 2163-02_Inhibitor_Dose_CherryPick_Activity.; format: functional, Mycobacterium tuberculosis UT205
Sequence of Adenosylmethionine-8-amino-7-oxononanoate aminotransferase (P9WQ81 whole entry): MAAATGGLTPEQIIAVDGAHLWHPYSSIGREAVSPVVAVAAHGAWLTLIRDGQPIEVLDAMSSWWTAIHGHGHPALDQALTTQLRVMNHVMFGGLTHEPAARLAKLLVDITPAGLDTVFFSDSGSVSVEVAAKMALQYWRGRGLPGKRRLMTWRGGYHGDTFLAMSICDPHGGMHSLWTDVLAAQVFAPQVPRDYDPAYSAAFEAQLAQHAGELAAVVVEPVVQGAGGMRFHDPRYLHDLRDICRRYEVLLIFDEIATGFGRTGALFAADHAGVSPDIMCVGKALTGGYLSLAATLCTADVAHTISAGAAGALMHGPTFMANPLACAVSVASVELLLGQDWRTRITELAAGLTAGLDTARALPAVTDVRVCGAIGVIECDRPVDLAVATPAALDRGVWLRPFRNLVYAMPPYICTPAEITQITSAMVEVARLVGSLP

[4] = target: T2, Corticotropin-releasing factor receptor 2/Corticotropin-releasing factor-binding protein (Homo sapiens, UniProt P24387+Q13324); assay: Dose Response confirmation of uHTS hits for small molecule antagonists of the CRF-binding protein and CRF-R2 receptor complex.; format: functional; conditions: read-out: IC50_Mean
T2 sequence (Q13324 whole entry): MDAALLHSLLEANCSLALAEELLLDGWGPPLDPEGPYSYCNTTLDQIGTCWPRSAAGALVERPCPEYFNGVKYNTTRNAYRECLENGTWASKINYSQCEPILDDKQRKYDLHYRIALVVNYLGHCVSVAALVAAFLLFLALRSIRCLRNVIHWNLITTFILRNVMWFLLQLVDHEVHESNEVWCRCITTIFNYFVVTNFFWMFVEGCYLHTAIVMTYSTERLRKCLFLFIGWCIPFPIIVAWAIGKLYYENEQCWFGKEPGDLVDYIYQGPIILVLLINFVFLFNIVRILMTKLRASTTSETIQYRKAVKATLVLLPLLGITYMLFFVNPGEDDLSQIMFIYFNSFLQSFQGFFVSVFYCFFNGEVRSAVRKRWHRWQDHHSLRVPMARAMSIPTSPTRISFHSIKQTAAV
T2 sequence (P24387 whole entry): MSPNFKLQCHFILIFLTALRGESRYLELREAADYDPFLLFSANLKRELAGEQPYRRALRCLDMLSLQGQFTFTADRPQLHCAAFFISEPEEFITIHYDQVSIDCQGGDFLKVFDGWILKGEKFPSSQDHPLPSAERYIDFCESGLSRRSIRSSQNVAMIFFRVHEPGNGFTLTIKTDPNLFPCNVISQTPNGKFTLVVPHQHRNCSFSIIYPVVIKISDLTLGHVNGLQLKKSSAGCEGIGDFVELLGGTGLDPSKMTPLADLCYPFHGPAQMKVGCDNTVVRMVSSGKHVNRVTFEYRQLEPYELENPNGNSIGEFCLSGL

[5] = CRF-BP/CRF-R2 complex antagonists, dose response, cell-based, uHTS hits, 384-well (AID 651639); format: functional, Homo sapiens; conditions: read-out: IC50_Mean
[6] = target: T2, Corticotropin-releasing factor receptor 2/Corticotropin-releasing factor-binding protein; assay: activators of CRF receptor 2 with binding protein – uHTS hits, confirmation (AID 602473); format: functional; conditions: read-out: EC50_Mean
[7] = cytotoxicity toward NIH3T3 fibroblasts, dose response, counter-screen, cell-based, ATP luminescence, mouse fibroblasts (AID 2010); format: functional;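 also: cells exposed to compound for about 90 hours before reading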
[8] = target: T3, High affinity choline transporter 1 (Homo sapiens, UniProt Q9GZV3); assay: CHT inhibitors, dose response, cell-based, 5-point CRC, membrane potential dye (AID 504840); format: functional
T3 sequence (Q9GZV3 whole entry): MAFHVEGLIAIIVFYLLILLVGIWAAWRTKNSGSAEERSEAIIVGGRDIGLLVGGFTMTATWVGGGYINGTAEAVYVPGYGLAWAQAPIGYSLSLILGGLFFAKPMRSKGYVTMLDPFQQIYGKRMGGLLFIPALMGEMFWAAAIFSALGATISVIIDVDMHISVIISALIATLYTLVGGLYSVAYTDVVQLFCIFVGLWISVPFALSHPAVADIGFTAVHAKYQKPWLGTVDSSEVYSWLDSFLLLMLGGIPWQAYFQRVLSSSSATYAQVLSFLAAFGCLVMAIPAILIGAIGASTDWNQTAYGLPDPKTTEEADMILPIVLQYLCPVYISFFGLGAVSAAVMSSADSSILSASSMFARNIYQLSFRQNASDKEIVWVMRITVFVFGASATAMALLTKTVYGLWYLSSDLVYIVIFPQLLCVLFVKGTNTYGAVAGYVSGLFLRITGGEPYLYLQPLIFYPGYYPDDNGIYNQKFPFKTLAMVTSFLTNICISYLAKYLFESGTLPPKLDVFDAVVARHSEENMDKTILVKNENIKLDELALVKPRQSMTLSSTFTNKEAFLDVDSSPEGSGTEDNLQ

[9] = target: T4, Rac GTPase-activating protein 1 (Homo sapiens, UniProt Q9H0H5); assay: MgcRacGAP GTPase-activating activity inhibitors, confirmation, biochemical, ADP Hunter fluorescence, primary and confirmatory (AID 624330); format: functional
T4 sequence (Q9H0H5 whole entry): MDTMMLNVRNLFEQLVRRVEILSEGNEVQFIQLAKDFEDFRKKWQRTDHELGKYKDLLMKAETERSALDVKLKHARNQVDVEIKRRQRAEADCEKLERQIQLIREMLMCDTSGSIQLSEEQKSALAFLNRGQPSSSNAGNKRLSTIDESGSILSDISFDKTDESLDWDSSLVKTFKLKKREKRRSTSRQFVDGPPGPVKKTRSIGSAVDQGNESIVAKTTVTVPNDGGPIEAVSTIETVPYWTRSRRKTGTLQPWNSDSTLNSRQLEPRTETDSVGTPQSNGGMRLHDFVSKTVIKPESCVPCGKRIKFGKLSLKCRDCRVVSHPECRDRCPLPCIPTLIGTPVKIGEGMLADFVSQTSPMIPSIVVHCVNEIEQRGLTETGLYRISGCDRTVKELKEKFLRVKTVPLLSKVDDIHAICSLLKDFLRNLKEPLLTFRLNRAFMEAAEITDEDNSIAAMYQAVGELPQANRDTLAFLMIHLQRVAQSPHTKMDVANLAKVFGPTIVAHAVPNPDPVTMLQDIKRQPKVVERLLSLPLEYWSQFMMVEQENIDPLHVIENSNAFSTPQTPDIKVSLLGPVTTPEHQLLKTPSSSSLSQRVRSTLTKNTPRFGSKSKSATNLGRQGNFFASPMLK

[10] = Luminescence Cell-Based Dose Retest to Confirm Inhibitors of Cancer Stem Cells. [Related pubchem assays (depositor defined):AID2717, AID2721]; format: functional; conditions: Homo sapiens
[11] = inhibitors of intracellular T. cruzi replication, confirmation, NIH3T3 host cells, beta-gal luminescence (AID 2044); format: functional, cell-based;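 also: intracellular parasites grown in NIH/3T3 mouse fibroblasts as host cells; luminescent beta-galactosidase reporter signal from transgenic T. cruzi replicating inside host cells; inhibitors lower the luminescence signal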
[12] = HeLa cell cytotoxicity, dose response, cytotoxicity control for MgcRacGAP inhibitor project (AID 624300); format: functional
[13] = target: ATP-dependent translocase ABCB1 (Homo sapiens, UniProt P08183); assay: ABCB1 efflux pump inhibitor potency, dose response, Jurkat-DNR cells, JC-1, flow cytometry (AID 1689); format: functional
Sequence of ATP-dependent translocase ABCB1 (P08183 whole entry): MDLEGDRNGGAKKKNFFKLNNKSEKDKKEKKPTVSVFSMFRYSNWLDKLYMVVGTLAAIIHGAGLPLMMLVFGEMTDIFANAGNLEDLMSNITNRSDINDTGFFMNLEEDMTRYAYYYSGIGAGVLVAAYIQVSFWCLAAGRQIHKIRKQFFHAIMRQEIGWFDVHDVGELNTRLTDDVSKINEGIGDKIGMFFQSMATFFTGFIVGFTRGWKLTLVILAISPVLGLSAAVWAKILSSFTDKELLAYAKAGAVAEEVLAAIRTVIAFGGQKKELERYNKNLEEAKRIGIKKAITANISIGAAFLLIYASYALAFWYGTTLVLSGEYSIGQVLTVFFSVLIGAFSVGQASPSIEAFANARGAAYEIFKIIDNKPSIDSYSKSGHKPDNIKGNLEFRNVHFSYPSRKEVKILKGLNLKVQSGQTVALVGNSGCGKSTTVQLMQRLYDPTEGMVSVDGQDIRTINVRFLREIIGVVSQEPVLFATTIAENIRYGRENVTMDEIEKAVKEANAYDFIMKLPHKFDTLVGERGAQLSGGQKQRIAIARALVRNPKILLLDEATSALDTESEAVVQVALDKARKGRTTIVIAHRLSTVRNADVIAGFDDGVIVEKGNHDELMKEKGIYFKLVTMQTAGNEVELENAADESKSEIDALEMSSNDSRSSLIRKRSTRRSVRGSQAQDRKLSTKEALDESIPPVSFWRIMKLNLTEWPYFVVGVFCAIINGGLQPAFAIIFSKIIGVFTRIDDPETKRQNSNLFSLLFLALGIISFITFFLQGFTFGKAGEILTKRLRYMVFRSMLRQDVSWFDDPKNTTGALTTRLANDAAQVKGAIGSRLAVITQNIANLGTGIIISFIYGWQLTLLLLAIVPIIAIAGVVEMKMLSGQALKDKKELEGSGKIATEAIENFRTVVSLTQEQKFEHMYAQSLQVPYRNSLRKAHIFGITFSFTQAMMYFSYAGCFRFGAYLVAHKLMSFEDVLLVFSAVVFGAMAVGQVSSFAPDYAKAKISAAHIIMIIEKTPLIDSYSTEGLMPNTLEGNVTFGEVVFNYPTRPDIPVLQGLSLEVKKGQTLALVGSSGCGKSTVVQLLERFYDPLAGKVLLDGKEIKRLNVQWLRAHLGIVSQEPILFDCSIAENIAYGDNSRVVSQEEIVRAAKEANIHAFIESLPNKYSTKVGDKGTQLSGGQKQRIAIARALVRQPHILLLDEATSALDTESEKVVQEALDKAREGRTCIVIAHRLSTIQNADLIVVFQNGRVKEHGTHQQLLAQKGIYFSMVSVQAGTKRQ

[14] = target: Broad substrate specificity ATP-binding cassette transporter ABCG2 (Homo sapiens, UniProt Q9UNQ0); assay: ABCG2 efflux pump inhibitors, dose response, Ig-MXP3 cells, flow cytometry (AID 1690); format: functional
Sequence of Broad substrate specificity ATP-binding cassette transporter ABCG2 (Q9UNQ0 whole entry): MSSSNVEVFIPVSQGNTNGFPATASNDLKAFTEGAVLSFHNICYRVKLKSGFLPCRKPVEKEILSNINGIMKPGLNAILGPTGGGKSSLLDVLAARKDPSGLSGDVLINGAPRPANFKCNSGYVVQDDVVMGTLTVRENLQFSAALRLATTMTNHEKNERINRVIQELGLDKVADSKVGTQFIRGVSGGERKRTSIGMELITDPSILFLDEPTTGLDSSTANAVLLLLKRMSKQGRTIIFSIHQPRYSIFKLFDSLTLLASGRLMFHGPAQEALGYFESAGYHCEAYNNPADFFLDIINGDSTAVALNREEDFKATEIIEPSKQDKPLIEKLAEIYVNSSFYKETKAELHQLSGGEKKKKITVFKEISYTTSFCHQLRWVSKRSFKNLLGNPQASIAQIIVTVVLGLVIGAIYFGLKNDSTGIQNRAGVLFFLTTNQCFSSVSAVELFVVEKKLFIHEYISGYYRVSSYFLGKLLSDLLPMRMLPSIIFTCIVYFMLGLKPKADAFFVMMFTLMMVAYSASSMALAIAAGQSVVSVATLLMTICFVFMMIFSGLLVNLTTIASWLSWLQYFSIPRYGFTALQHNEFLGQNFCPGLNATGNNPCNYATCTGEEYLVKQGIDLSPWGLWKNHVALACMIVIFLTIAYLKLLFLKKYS

[15] = cells; format: functional, cell-based; conditions: HEK-CNG
[16] = target: Galanin receptor type 3 (Homo sapiens, UniProt O60755); assay: Fluorescence-based cell-based primary high throughput dose response assay to identify antagonists of the Galanin Receptor 3 (GalR3).; format: functional
Sequence of Galanin receptor type 3 (O60755 whole entry): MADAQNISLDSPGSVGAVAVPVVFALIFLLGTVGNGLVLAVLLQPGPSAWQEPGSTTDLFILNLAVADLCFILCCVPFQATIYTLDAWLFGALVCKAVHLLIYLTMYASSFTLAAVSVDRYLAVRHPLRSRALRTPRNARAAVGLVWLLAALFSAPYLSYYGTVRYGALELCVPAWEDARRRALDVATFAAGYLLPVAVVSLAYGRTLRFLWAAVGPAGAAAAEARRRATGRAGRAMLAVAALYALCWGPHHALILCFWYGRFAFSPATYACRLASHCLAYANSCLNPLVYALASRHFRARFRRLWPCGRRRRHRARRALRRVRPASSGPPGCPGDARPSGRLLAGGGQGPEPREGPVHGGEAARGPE

[17] = target: T5, Orexin/Hypocretin receptor type 1 (Homo sapiens, UniProt O43613); assay: Fluorescence-based cell-based high throughput dose response assay for antagonists of the orexin 1 receptor (OX1R; HCRTR1). [Related pubchem assays (depositor defined):AID434989, AID435008, AID463079, AID485270, AID492963, AID492964, AID492965, AID493232, AID504717, AID504718]; format: functional
T5 sequence (O43613 whole entry): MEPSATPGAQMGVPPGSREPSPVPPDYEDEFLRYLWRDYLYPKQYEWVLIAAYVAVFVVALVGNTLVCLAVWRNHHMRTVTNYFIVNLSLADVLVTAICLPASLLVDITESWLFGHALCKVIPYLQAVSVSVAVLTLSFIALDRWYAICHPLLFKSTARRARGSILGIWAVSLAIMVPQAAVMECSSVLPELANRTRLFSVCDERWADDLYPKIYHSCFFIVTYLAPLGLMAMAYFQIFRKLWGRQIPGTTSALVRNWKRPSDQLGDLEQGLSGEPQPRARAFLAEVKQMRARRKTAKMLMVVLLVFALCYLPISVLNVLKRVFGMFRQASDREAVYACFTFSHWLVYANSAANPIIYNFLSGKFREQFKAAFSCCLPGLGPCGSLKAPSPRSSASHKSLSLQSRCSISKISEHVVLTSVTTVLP

[18] = target: T6, Orexin receptor type 2 (Homo sapiens, UniProt O43614); assay: Counterscreen assay for antagonists of the orexin 1 receptor (OX1R; HCRTR1): Homogeneous Time Resolved Fluorescence (HTRF)-based cell-based dose response assay for antagonists of the orexin 2 receptor (OX2R; HCRTR2), run by assay provider.; format: functional
T6 sequence (O43614 whole entry): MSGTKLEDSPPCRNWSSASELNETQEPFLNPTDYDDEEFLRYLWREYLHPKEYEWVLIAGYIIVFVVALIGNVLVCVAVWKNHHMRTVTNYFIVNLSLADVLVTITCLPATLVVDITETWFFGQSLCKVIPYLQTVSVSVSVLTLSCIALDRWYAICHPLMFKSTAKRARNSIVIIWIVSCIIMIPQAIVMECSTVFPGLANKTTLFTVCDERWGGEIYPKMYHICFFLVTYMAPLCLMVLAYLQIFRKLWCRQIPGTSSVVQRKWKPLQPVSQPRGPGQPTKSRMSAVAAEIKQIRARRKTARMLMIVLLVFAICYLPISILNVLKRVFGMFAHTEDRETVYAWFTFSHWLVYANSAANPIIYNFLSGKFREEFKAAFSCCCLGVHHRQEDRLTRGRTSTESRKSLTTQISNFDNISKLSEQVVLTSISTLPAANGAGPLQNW

[19] = Counterscreen for antagonists of the orexin 1 receptor (OX1R; HCRTR1): Fluorescence-based cell-based high throughput dose response assay to identify antagonists of the parental CHO cell line. [Related pubchem assays (depositor defined):AID434989, AID435008, AID463079, AID485270, AID492963, AID492964, AID492965, AID493232, AID504699, AID504701]; format: functional
[20] = tested on: CHO-K1; assay: Counterscreen for antagonists of the orexin 1 receptor (OX1R; HCRTR1): Homogeneous time resolved fluorescence (HTRF)-based cell-based dose response assay to identify antagonists of the parental CHO-K1 cell line. [Related pubchem assays (depositor defined):AID434989, AID435008, AID463079, AID485270, AID492963, AID492964, AID492965, AID493232, AID504699, AID504701]; format: functional; conditions: Cricetulus griseus;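 also: potency for inhibition of ATP-stimulated IP1 production as antagonists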
[21] = target: T6, Orexin receptor type 2; assay: Counterscreen assay for antagonists of the orexin 1 receptor (OX1R; HCRTR1): Fluorescence-based cell-based dose response assay for antagonists of the orexin 2 receptor (OX2R; HCRTR2), run by assay provider.; format: functional
[22] = target: T5, Orexin/Hypocretin receptor type 1; assay: Homogeneous Time Resolved Fluorescence (HTRF)-based cell-based high throughput dose response assay for antagonists of the orexin 1 receptor (OX1R; HCRTR1). [Related pubchem assays (depositor defined):AID434989, AID435008, AID463079, AID485270, AID492963, AID492964, AID492965, AID493232, AID504717, AID504718]; format: functional

CCn1c(Oc2ccccc2F)nc2c1c(=O)n(C)c(=O)n2C
IC50 [1]: 21 µM (inactive) | IC50 [2]: 4.08 µM (active)

COCCN1C(=O)c2ccc(C(=O)Nc3cccnc3)cc2C1=O
AC50 [3]: 4.26 µM (active)

CC(=O)c1cccc(NC(=O)Nc2cccnc2)c1
IC50 [1]: 45.7 µM (inactive) | IC50 [2]: 43.8 µM (inactive)

Cc1ccc(CSCC(=O)Nc2cc(S(=O)(=O)N3CCOCC3)ccc2OC(C)C)cc1
IC50 [4]: < 0.368 µM (active) | IC50 [5]: > 20 µM (inactive) | EC50 [6]: > 53 µM (inactive)

CCOCCCNC(=O)/C(C#N)=C/c1ccc([N+](=O)[O-])o1
EC50 [7]: 4.2 µM (active) | IC50 [8]: 4.79 µM (active) | IC50 [9]: 149 µM (active) | AC50 [10]: 5.62 µM (active) | EC50 [11]: 3.08 µM (active) | CC50 [12]: 96.6 µM (active)

Cc1cc(C(=O)N2CCN(c3ccc([N+](=O)[O-])cc3)CC2)co1
IC50 [4]: 36.1 µM (active) | IC50 [5]: > 20 µM (inactive) | EC50 [6]: > 53 µM (inactive)

Cc1cc(C)n(-c2ccc(Cl)c(C(=O)Nc3cc(C(F)(F)F)ccc3Cl)n2)n1
EC50 [13]: 5.21 µM (inactive) | EC50 [14]: 0.24 µM (inactive)

COc1ccc(C(=O)CSc2nnc(Cn3cnc4ccccc43)o2)cc1
EC50 [15]: > 29.9 µM (inactive) | IC50 [16]: 0.891 µM (active)

COc1cc2nc(S)nc(NCCc3ccc(S(N)(=O)=O)cc3)c2cc1OC
CC50 [12]: 100 µM (active)

CCN(CC)P(=O)(Nc1cccc(C(F)(F)F)c1)c1ccc(N(C)C)cc1NC(=O)c1ccco1 (configuration not stated)
EC50 [7]: > 30 µM (not active) | IC50 [17]: 2.29 µM (active) | IC50 [18]: > 50 µM (inactive) | EC50 [13]: 0.998 µM (active) | IC50 [19]: > 49.8 µM (inactive) | IC50 [20]: > 66.2 µM (inactive) | EC50 [11]: 1.3 µM (active) | IC50 [21]: 5 µM (active) | IC50 [22]: 0.184 µM (active) | EC50 [14]: 2.29 µM (active)
